Laboratory results as given in PubChem BioAssay AID1117337 (Cheminformatics & Chemogenomics Research Group (CCRG), …, 2015).
Calls of active or inactive are those of the source. The rule behind the calls is not given here.

System: ADSC/ECFC co-culture, VEGF-stimulated, CD31 tube area
Assay: inhibition of endothelial tube formation, dose response, imaging, VEGF stimulation, CD31 staining, tube area, IC50 (AID 1117337)

Compound	IC50
O=C(Nc1ccc(Cl)cc1)Nc1ccc(Cl)c(Cl)c1	> 10 µM (inactive)
Cc1ccc(Nc2c(F)cccc2Cl)c(CC(=O)O)c1	> 10 µM (inactive)
C[C@H]1O[C@@H](O[C@H]2[C@@H](O)C[C@H](O[C@H]3[C@@H](O)C[C@H](O[C@H]4CC[C@@]5(C)[C@H](CC[C@@H]6[C@@H]5CC[C@]5(C)[C@@H](C7=CC(=O)OC7)CC[C@]65O)C4)O[C@@H]3C)O[C@@H]2C)C[C@H](O)[C@@H]1O	0.011 µM
CCCCCCCCCCCCCCCCCCNC(=O)OC1CCN(C(=O)OC[C@H](COC(=O)N(Cc2cccc[n+]2CC)C(=O)c2ccccc2OC)OC)CC1	1.5 µM
CS(=O)(=O)CCNCc1ccc(-c2ccc3ncnc(Nc4ccc(OCc5cccc(F)c5)c(Cl)c4)c3c2)o1	> 10 µM (inactive)
C=CCN1CC[C@]23CCCC[C@H]2[C@H]1Cc1ccc(O)cc13	> 10 µM (inactive)
CC(C)(C)CC(C)(C)c1ccc(OCCOCC[N+](C)(C)Cc2ccccc2)cc1	3.74 µM
C#C[C@]1(O)CC[C@@H]2[C@@H]3CCC4=CCCC[C@@H]4[C@H]3C(=C)C[C@@]21CC	> 10 µM (inactive)
CO[C@@H]1[C@@H](OC)[C@H](C)[C@@](O)(CC(=O)O)O[C@H]1[C@H](C)[C@H]1O[C@@]2(CC[C@@](C)([C@H]3CC[C@@](C)([C@@H]4O[C@@H]([C@H]5O[C@](C)(O)[C@H](C)C[C@@H]5C)C[C@@H]4OC4C[C@H](OC)[C@@H](OC)[C@H](C)O4)O3)O2)C[C@H](O)[C@H]1C (stereo partly drawn)	0.252 µM
O=C(Nc1ccc([N+](=O)[O-])cc1Cl)c1cc(Cl)ccc1O	0.112 µM
COC(=O)CCCCC(CCSS/C(CCO)=C(\C)N(C=O)Cc1cnc(C)nc1N)SC(C)=O (stereo not drawn)	> 10 µM (inactive)
Oc1ccc(/C=C/c2cc(O)cc(O)c2)cc1	> 10 µM (inactive)
Cc1cccc(C)c1NC(=O)CN1CCN(CCCC(c2ccc(F)cc2)c2ccc(F)cc2)CC1	> 10 µM (inactive)
CC[C@]1(O)CC[C@H]2[C@@H]3CCC4=CCCC[C@@H]4[C@H]3CC[C@@]21C	6.25 µM (inactive)
Cc1ccc([N+](=O)[O-])[c]2c1[O][Hg]2	0.668 µM
CCCCC(CC)COC(=O)C(C#N)=C(c1ccccc1)c1ccccc1 (stereo not drawn)	> 10 µM (inactive)
O=c1c(-c2ccccc2)c1-c1ccccc1	3.84 µM
CC(=O)O[C@@]12CO[C@@H]1C[C@H](O)[C@@]1(C)C(=O)[C@H](O)C3=C(C)[C@@H](OC(=O)[C@H](O)[C@@H](NC(=O)OC(C)(C)C)c4ccccc4)C[C@@](O)([C@@H](OC(=O)c4ccccc4)[C@H]21)C3(C)C	0.001 µM
CCN(CC)CCNC(=O)c1c(C)[nH]c(/C=C2\C(=O)Nc3ccc(F)cc32)c1C	0.0254 µM
CCN1CCC[C@H]1CNC(=O)c1c(OC)ccc(Br)c1OC	> 10 µM (inactive)
CC[C@H](C)C(=O)O[C@H]1C[C@@H](C)C=C2C=C[C@H](C)[C@H](CC[C@@H]3C[C@@H](O)CC(=O)O3)[C@H]21	3.27 µM

Compound	IC50
Cc1ccc2c(Br)cc(Br)c(O)c2n1	> 10 µM (inactive)
O=C(CCN1CCC(c2ccccc2)C1)c1ccc2c(c1)OCCO2 (stereo not drawn)	> 10 µM (inactive)
CCN(CC)CCNc1ccc(CO)c2sc3ccccc3c(=O)c12	8.35 µM (inactive)
COC(=O)N[C@H](C(=O)N[C@@H](Cc1ccccc1)[C@@H](O)CN(Cc1ccc(-c2ccccn2)cc1)NC(=O)[C@@H](NC(=O)OC)C(C)(C)C)C(C)(C)C	> 10 µM (inactive)
ClC1=C(Cl)C2(Cl)C(CBr)CC1(Cl)C2(Cl)Cl (stereo not drawn)	> 10 µM (inactive)
CCCOC(=O)c1cc(O)c(O)c(O)c1	> 10 µM (inactive)
CC(=O)[C@]1(O)Cc2c(O)c3c(c(O)c2[C@@H](O[C@H]2C[C@H](N)[C@H](O)[C@H](C)O2)C1)C(=O)c1ccccc1C3=O	0.0208 µM
C[C@H](O)CN(C)C	> 10 µM (inactive)
C1CN(P2(N3CC3)=NP(N3CC3)(N3CC3)=NP(N3CC3)(N3CC3)=N2)CCO1 (stereo not drawn)	3.62 µM
CC[C@@]1(O)C(=O)OCc2c1cc1n(c2=O)Cc2c-1nc1ccccc1c2/C=N/OC(C)(C)C	0.002 µM
Clc1ccc(C(Cn2ccnc2)OCc2ccc(Sc3ccccc3)cc2)c(Cl)c1 (stereo not drawn)	> 10 µM (inactive)
COCc1c(C(C)C)nc(C(C)C)c(/C=C/[C@@H](O)C[C@@H](O)CC(=O)O)c1-c1ccc(F)cc1	0.0894 µM
COc1ccc(-c2nc3ccc(C4=NNC(=O)CC4C)cc3[nH]2)cc1 (stereo not drawn)	2.89 µM
COC(=O)c1ccccc1C(=O)OC	> 10 µM (inactive)
COc1cc([C@@H]2c3cc4c(cc3[C@H](O)[C@H]3COC(=O)[C@H]23)OCO4)cc(OC)c1OC	0.0081 µM
Clc1ccc(CSC(Cn2ccnc2)c2ccc(Cl)cc2Cl)cc1 (stereo not drawn)	2.13 µM
COc1c(C)c2c(c(O)c1C/C=C(\C)CCC(=O)OCCN1CCOCC1)C(=O)OC2	1.26 µM
CN1CCN(c2cc3c(nn2)Oc2ccccc2N3C)CC1	> 10 µM (inactive)
Clc1ccc(C(Cn2ccnc2)OCc2ccsc2Cl)c(Cl)c1 (stereo not drawn)	5 µM
Clc1ccc(Nc2nnc(Cc3ccncc3)c3ccccc23)cc1	0.111 µM
O=C(O)C1(C(=O)O)CCC1.[NH2-].[NH2-].[Pt+2]	> 10 µM (inactive)

Compound	IC50
CC1(C)[C@H](C=C(Cl)Cl)[C@@H]1C(=O)OCc1c(F)c(F)cc(F)c1F	> 10 µM (inactive)
CSc1ccc2c(c1)N(CCC1CCCCN1C)c1ccccc1S2 (stereo not drawn)	> 10 µM (inactive)
CC=CC1C(C(=O)OCc2c(F)c(F)c(COC)c(F)c2F)C1(C)C (stereo not drawn)	> 10 µM (inactive)
CCc1oc2ccccc2c1C(=O)c1cc(Br)c(O)c(Br)c1	> 10 µM (inactive)
CN(Cc1cnc2nc(N)nc(N)c2n1)c1ccc(C(=O)N[C@@H](CCC(=O)O)C(=O)O)cc1	> 10 µM (inactive)
CCCCCCCCCCCCCC[N+](C)(C)C	1.9 µM
O=C(Nc1ccc(Br)cc1)c1cc(Br)cc(Br)c1O	1.81 µM
Cc1[nH]cnc1C[C@H]1CCc2c(C)c3ccccc3n2C1=O	> 10 µM (inactive)
COc1cc([C@@H]2c3cc4c(cc3[C@@H](O[C@@H]3O[C@@H]5CO[C@@H](C)O[C@@H]5[C@H](O)[C@@H]3O)[C@H]3COC(=O)[C@H]23)OCO4)cc(OC)c1O	0.109 µM
O=c1[nH]cc(F)c(=O)[nH]1	> 10 µM (inactive)
Oc1c(I)cc(I)c2cccnc12	2.39 µM
O=c1c(-c2ccc(O)cc2)coc2cc(O)cc(O)c12	> 10 µM (inactive)
CCCCCCCCCCCCCCCC[N+](C)(C)CC	1.14 µM
Cc1cc(-c2ccc(N=Nc3c(S(=O)(=O)O)cc4cc(S(=O)(=O)O)cc(N)c4c3O)c(C)c2)ccc1N=Nc1c(S(=O)(=O)O)cc2cc(S(=O)(=O)O)cc(N)c2c1O	> 10 µM (inactive)
CC(C)=CCC/C(C)=C/CC/C(C)=C/C(=O)OCC(=O)[C@@]1(O)CC[C@H]2[C@@H]3CCC4=CC(=O)C=C[C@]4(C)[C@H]3[C@@H](O)C[C@@]21C	3.34 µM
CSc1ccc2c(c1)C(N1CCN(C)CC1)Cc1ccccc1S2 (stereo not drawn)	> 10 µM (inactive)
CN1CCN(C2Cc3ccccc3Sc3ccc(Cl)cc32)CC1 (stereo not drawn)	5.23 µM (inactive)
COC(=O)C(Cl)C(=O)OC	> 10 µM (inactive)
O[C@@H](c1cc(C(F)(F)F)nc2c(C(F)(F)F)cccc12)[C@H]1CCCCN1	> 10 µM (inactive)
COc1ccc2cc3[n+](cc2c1OC)CCc1cc2c(cc1-3)OCO2	2.68 µM
CN1CCN(CCCN2c3ccccc3Sc3ccc(C(F)(F)F)cc32)CC1	> 10 µM (inactive)
